Test results reported in PMC9405973, “Altered Conformational Landscape upon Sensing Guanine Nucleotides in a Disease Mutant of Elongation Factor-like 1 (EFL1) GTPase” (Biomolecules, 2022).
Several values for one entry are separate records, joined by “and”; a condition that tells them apart may be missing. Identical values can stand only once.

Experiments:
Efl1 R1086Q = target: T1, Efl1 R1086Q (Saccharomyces cerevisiae, UniProt P53893, R1086Q); assay: Isothermal titration calorimetry (ITC): binding of guanine nucleotides or Sdo1 to Efl1 R1086Q; conditions: for Kd / -TΔSb / ΔGb / ΔHb / ΔCpb: guanine nucleotide; for ΔCpb: from ΔHb at 25–35 °C
T1 construct: made in house; host or cells: Saccharomyces cerevisiae
T1 sequence (P53893 whole entry R1086Q): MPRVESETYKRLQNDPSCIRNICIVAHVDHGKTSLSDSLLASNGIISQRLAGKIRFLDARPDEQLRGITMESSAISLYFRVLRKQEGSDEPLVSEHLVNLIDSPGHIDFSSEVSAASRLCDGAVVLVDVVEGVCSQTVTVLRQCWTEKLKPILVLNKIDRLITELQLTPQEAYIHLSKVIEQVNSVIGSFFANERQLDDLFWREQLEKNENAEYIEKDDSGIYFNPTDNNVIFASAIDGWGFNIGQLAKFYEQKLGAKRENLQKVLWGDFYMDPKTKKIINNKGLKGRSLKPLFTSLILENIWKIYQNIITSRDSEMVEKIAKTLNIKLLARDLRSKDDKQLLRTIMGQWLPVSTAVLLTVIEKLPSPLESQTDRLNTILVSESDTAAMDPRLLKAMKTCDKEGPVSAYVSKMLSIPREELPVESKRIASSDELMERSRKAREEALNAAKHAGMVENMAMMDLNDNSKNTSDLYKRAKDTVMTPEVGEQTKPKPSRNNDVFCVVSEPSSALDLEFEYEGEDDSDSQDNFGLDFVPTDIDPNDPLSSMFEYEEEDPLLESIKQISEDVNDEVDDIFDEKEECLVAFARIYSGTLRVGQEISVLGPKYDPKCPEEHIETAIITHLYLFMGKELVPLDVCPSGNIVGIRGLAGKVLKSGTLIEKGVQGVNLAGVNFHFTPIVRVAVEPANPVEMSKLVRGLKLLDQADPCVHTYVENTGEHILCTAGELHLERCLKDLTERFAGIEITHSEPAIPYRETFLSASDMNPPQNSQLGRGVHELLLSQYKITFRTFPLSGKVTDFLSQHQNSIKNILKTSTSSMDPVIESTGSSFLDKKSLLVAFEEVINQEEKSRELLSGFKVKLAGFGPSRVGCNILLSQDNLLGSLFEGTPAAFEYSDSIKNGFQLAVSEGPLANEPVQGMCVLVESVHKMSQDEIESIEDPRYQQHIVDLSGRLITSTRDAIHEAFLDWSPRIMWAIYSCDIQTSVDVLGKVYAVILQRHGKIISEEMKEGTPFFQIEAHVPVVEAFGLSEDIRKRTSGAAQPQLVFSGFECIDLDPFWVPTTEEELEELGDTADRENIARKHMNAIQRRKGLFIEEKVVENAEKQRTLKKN
Summary of the method: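 ITC at 25–35 °C in 50 mM Tris-HCl pH 8.0, 150 mM NaCl, 5% glycerol, with 5 mM MgCl2 or 2 mM EDTA; 30–50 µM GTPase in cell, 2–3 mM nucleotide titrated, eight-fold Sdo1 excess for complex. Kb, ΔHb, n from one-site fit; Mg isotherms by ternary coupled-equilibria model.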

wild-type Efl1•Sdo1 = tested on: wild-type Efl1•Sdo1; design: method as in PMID 30780079; conditions: −Mg^2+, cited from earlier work
[1] = Effect of Mg^2+, Efl1 R1086Q − Sdo1, 25 °C
[2] = Effect of Mg^2+, Efl1 R1086Q − Sdo1, 30 °C
[3] = Effect of Mg^2+, Efl1 R1086Q − Sdo1, 35 °C
[4] = Effect of Sdo1, Efl1 R1086Q + Mg^2+, 25 °C
[5] = Effect of Sdo1, Efl1 R1086Q + Mg^2+, 30 °C
[6] = Effect of Sdo1, Efl1 R1086Q + Mg^2+, 35 °C
[7] = Effect of Sdo1, Efl1 R1086Q − Mg^2+, 25 °C
[8] = Effect of Sdo1, Efl1 R1086Q − Mg^2+, 30 °C
[9] = Effect of Sdo1, Efl1 R1086Q − Mg^2+, 35 °C

Nc1nc2c(ncn2[C@@H]2O[C@H](COP(=O)(O)OP(=O)(O)OP(=O)(O)O)[C@@H](O)[C@H]2O)c(=O)[nH]1 [GTP]
Nconfres (number of residues changing conformation, absolute value) (Efl1 R1086Q; +Mg^2+, 30 °C): 3
Nconfrotb (number of routable bonds changing conformation, absolute value) (Efl1 R1086Q; +Mg^2+, 30 °C): 21
ΔCpconf (Efl1 R1086Q; +Mg^2+, 30 °C): 35 cal mol^−1 K^−1
ΔSb (Efl1 R1086Q; +Mg^2+, 30 °C): 25 cal mol^−1 K^−1
ΔSconf (Efl1 R1086Q; +Mg^2+, 30 °C): 36 cal mol^−1 K^−1
ΔSsolv (Efl1 R1086Q; +Mg^2+, 30 °C): −2 cal mol^−1 K^−1
−ΔASAconf (Efl1 R1086Q; +Mg^2+, 30 °C): −157 Å^2
-TΔs (Efl1 R1086Q; [1]): 0.5 kcal/mol
Δg (Efl1 R1086Q; [1]): -0.1 kcal/mol
Δh (Efl1 R1086Q; [1]): -0.56 kcal/mol
κ (heterotropic cooperativity) (Efl1 R1086Q; [1]): 1.0
-TΔs (Efl1 R1086Q; [2]): 1.2 kcal/mol
Δg (Efl1 R1086Q; [2]): 0.6 kcal/mol
Δh (Efl1 R1086Q; [2]): -0.63 kcal/mol
κ (heterotropic cooperativity) (Efl1 R1086Q; [2]): 0.4
-TΔs (Efl1 R1086Q; [3]): 1.3 kcal/mol
Δg (Efl1 R1086Q; [3]): 0.5 kcal/mol
Δh (Efl1 R1086Q; [3]): -0.78 kcal/mol
κ (heterotropic cooperativity) (Efl1 R1086Q; [3]): 0.4
-TΔs (Efl1 R1086Q; [4]): 2.5 kcal/mol
Δg (Efl1 R1086Q; [4]): 0.3 kcal/mol
Δh (Efl1 R1086Q; [4]): -2.1 kcal/mol
κ (heterotropic cooperativity) (Efl1 R1086Q; [4]): 0.6
-TΔs (Efl1 R1086Q; [5]): 4.8 kcal/mol
Δg (Efl1 R1086Q; [5]): 0.7 kcal/mol
Δh (Efl1 R1086Q; [5]): -4.1 kcal/mol
κ (heterotropic cooperativity) (Efl1 R1086Q; [5]): 0.3
-TΔs (Efl1 R1086Q; [6]): 7.1 kcal/mol
Δg (Efl1 R1086Q; [6]): 0.9 kcal/mol
Δh (Efl1 R1086Q; [6]): -6.2 kcal/mol
κ (heterotropic cooperativity) (Efl1 R1086Q; [6]): 0.3
-TΔs (Efl1 R1086Q; [7]): 5.6 kcal/mol
Δg (Efl1 R1086Q; [7]): 0.0 kcal/mol
Δh (Efl1 R1086Q; [7]): -5.6 kcal/mol
κ (heterotropic cooperativity) (Efl1 R1086Q; [7]): 1.0
-TΔs (Efl1 R1086Q; [8]): 6.3 kcal/mol
Δg (Efl1 R1086Q; [8]): 0.7 kcal/mol
Δh (Efl1 R1086Q; [8]): -5.6 kcal/mol
κ (heterotropic cooperativity) (Efl1 R1086Q; [8]): 0.3
-TΔs (Efl1 R1086Q; [9]): 6.5 kcal/mol
Δg (Efl1 R1086Q; [9]): 0.9 kcal/mol
Δh (Efl1 R1086Q; [9]): -5.6 kcal/mol
κ (heterotropic cooperativity) (Efl1 R1086Q; [9]): 0.2
Kd (Efl1 R1086Q; +Mg^2+, 25 °C): 16 ± 2 µM
Kd (Efl1 R1086Q; +Mg^2+, 30 °C): 16 ± 3 µM
Kd (Efl1 R1086Q; +Mg^2+, 35 °C): 13 ± 2 µM
Kd (Efl1 R1086Q; −Mg^2+, 25 °C): 17 ± 5 µM
Kd (Efl1 R1086Q; −Mg^2+, 30 °C): 6 ± 1 µM
Kd (Efl1 R1086Q; −Mg^2+, 35 °C): 6 ± 1 µM
-TΔSb (Efl1 R1086Q; +Mg^2+, 25 °C): -7.57 kcal/mol
ΔGb (Efl1 R1086Q; +Mg^2+, 25 °C): -6.53 kcal/mol
ΔHb (Efl1 R1086Q; +Mg^2+, 25 °C): 1.04 ± 0.05 kcal/mol
-TΔSb (Efl1 R1086Q; +Mg^2+, 30 °C): -7.74 kcal/mol
ΔGb (Efl1 R1086Q; +Mg^2+, 30 °C): -6.67 kcal/mol
ΔHb (Efl1 R1086Q; +Mg^2+, 30 °C): 1.07 ± 0.03 kcal/mol
-TΔSb (Efl1 R1086Q; +Mg^2+, 35 °C): -8.0 kcal/mol
ΔGb (Efl1 R1086Q; +Mg^2+, 35 °C): -6.88 kcal/mol
ΔHb (Efl1 R1086Q; +Mg^2+, 35 °C): 1.12 ± 0.06 kcal/mol
ΔCpb (Efl1 R1086Q; +Mg^2+): 10 ± 2 cal mol^−1 K^−1 and 10 cal mol^−1 K^−1
-TΔSb (Efl1 R1086Q; −Mg^2+, 25 °C): -8.12 kcal/mol
ΔGb (Efl1 R1086Q; −Mg^2+, 25 °C): -6.52 kcal/mol
ΔHb (Efl1 R1086Q; −Mg^2+, 25 °C): 1.6 ± 0.3 kcal/mol
-TΔSb (Efl1 R1086Q; −Mg^2+, 30 °C): -8.90 kcal/mol
ΔGb (Efl1 R1086Q; −Mg^2+, 30 °C): -7.20 kcal/mol
ΔHb (Efl1 R1086Q; −Mg^2+, 30 °C): 1.7 ± 0.1 kcal/mol
-TΔSb (Efl1 R1086Q; −Mg^2+, 35 °C): -9.30 kcal/mol
ΔGb (Efl1 R1086Q; −Mg^2+, 35 °C): -7.40 kcal/mol
ΔHb (Efl1 R1086Q; −Mg^2+, 35 °C): 1.9 ± 0.1 kcal/mol
ΔCpb (Efl1 R1086Q; −Mg^2+): 30 cal mol^−1 K^−1 and 30 ± 6 cal mol^−1 K^−1
overall heat-capacity change to drive the protein into ternary complex GTPase•GTP•Sdo1 (Efl1 R1086Q; mutant Efl1): −410 cal mol^−1 K^−1
Nconfres (number of residues changing conformation, absolute value) (Efl1 R1086Q; −Mg^2+, 30 °C): 4
Nconfrotb (number of routable bonds changing conformation, absolute value) (Efl1 R1086Q; −Mg^2+, 30 °C): 27
ΔCpconf (Efl1 R1086Q; −Mg^2+, 30 °C): 41 cal mol^−1 K^−1
ΔSb (Efl1 R1086Q; −Mg^2+, 30 °C): 29 cal mol^−1 K^−1
ΔSconf (Efl1 R1086Q; −Mg^2+, 30 °C): 44 cal mol^−1 K^−1
ΔSsolv (Efl1 R1086Q; −Mg^2+, 30 °C): −7 cal mol^−1 K^−1
−ΔASAconf (Efl1 R1086Q; −Mg^2+, 30 °C): −184 Å^2
-TΔSb (wild-type Efl1•Sdo1; 30 °C): -4.7 kcal/mol
Kd (wild-type Efl1•Sdo1; 30 °C): 11 µM
ΔGb (wild-type Efl1•Sdo1; 30 °C): -6.8 kcal/mol
ΔHb (wild-type Efl1•Sdo1; 30 °C): -2.1 ± 0.2 kcal/mol
ΔCpb (wild-type Efl1•Sdo1): −90 cal mol^−1 K^−1 and −90 ± 5 cal mol^−1 K^−1
